Experimental data reported in publication PMC7230911, “Meroterpenoids from the Brown Alga Cystoseira usneoides as Potential Anti-Inflammatory and Lung Anticancer Agents” (Marine Drugs, 2020).
Read-outs that look alike come from different tables or passages of the source.

Key:
[1] = tested on: A549 human cancer cell line; conditions: cited from earlier work
[2] = tested on: LPS-stimulated RAW264.7 macrophages; conditions: cited from earlier work
[3] = tested on: several human cancer cell lines, including A549 cells; parameters: method as in PMID 19271727, PMID 22920243; conditions: mean over several human cancer cell lines; cited from earlier work
[4] = tested on: A549 cells; experiment: Cell cycle analysis of A549 cells by flow cytometry; type: cell-based, human; conditions: 0.2 μg/mL, 24 h, positive control
Experimental: We next investigated whether the treatment with AMTs 1–8 caused any cell cycle-related event, which inhibit the viability of A549 cell line. Thus, the cells were treated for 24 h with the AMTs at concentrations of IC50 (Table 1), or with colchicine (at 0.2 μg/mL) as the positive control, and then subjected to flow cytometry analysis to evaluate the distribution of cells in the different phases of the cell cycle (Figure 5A).
Figure 5 Effects of meroterpenoids 1–8 on cell cycle distribution of A549 cells. Cells were incubated with IC50 doses of the compounds for 24 h. (A) Cells were harvested to measure the cell cycle distribution by flow cytometry. (B) Quantitative analysis of cell cycle distribution after treatment. Data represent mean ±SE from three independent experiments. * p < 0.05, ** p < 0.01, and *** p < 0.001 compared with the untreated group (control).
For cell cycle analysis by flow cytometry, A549 cells were seeded at 1 × 10^6 cells/well in 6-well plates and incubated for 24 h followed by treatment with the AMTs, at concentration of IC50, and further incubation for 24 h. Colchicine (final concentration of 0.2 μg/mL) was used as positive control. Cells were harvested after trypsinization and washed once with PBS. Then, the cells were centrifuged at 1500 rpm for 5 min (25 °C), the pellet was fixed with 1 mL of ice-cold 70% ethanol, and the samples were stored at −4 °C overnight. Then the cells were washed with PBS and incubated in the darkness with PBS containing 5 mg/mL of RNase A for 48 h at 4 °C. Subsequently, 50 µL of propidium iodide (0.1 mg/mL) was added and the cells were incubated for 1 h at 4 °C. The relative DNA content per cell was analyzed using a Beckman Coulter Cytomics FC 500 MPL (Beckman Coulter Inc, San Diego, CA, USA). The data acquisition was performed with the DML program. The analysis of the acquired data was performed with the CXP cytometer.

[5] = tested on: several human cancer cell lines, including A549 cell line; parameters: method as in PMID 22775218; conditions: cited from earlier work

5β-hydroxyaplysin
IC50 ([1]; read-out: IC50 towards A549): 35.3 µM

5β-hydroxypalisadin B
production of NO, TNF-α, IL-6, IL-1β and COX-2, iNOS expression (in words) [2]: inhibit

C=C(C)[C@@H]1CCC(C)(O)[C@H](Br)CC[C@@]2(C)C(=C(C)CC[C@@H]2Br)Cc2cc(ccc2O)C(=O)O1 (stereo partly shown) [bromophycolide M]
IC50 [3]: 3.1 µM

C=C(C)[C@@H]1CCC(C)(O)[C@H](Br)CC[C@@]2(C)[C@H](Cc3cc(ccc3O)C(=O)O1)C(C)=CC[C@@H]2Br (stereo partly shown) [bromophycolide N]
IC50 [3]: 8.6 µM

CC1=CC[C@H](Br)[C@@]2(C)CC[C@@H](Br)C(C)(O)CC[C@@H](C(C)(C)Br)OC(=O)c3ccc(O)c(c3)C[C@H]12 (stereo partly shown) [bromophycolide O]
IC50 [3]: 9.7 µM

C=C1CC[C@H](Br)[C@@]2(C)CC[C@@H](Br)[C@@]3(C)CC[C@H](OC(=O)c4ccc(O)c(c4)C[C@H]12)C(C)(C)O3 [bromophycolide P]
IC50 [3]: 7.9 µM

CC1=C2Cc3cc(ccc3O)C(=O)O[C@H]3CC[C@@](C)(OC3(C)C)[C@H](Br)CC[C@]2(C)[C@@H](Br)CC1 [bromophycolide Q]
IC50 [3]: 2 µM

COc1cc2c(c(OC)c1OC)-c1ccc(OC)c(=O)cc1[C@@H](NC(C)=O)CC2 [colchicine, reference compound]
cells arrested in G2/M phase [4]: 89.88%

C=C1C[C@H](O)[C@H](Br)C(C)(C)[C@@]12CCC(C)=C(Cl)C2 [elatol]
cell cycle effect (in words) [5]: cell cycle arrest in the G1 and the sub-G1 phases
IC50 ([1]; read-out: IC50 towards A549): 4.8 µM

CC(C)[C@@H]1CC=C[C@H]2[C@H]3[C@@](C)(C=CC(=O)[C@@]3(C)O)CC[C@]12CBr [sphaerococcenol A]
IC50 ([1]; read-out: IC50 growth of A549 cells): 3.7 µM

bromophycoic acid D
IC50 [3]: 6.8 µM

nerogioltriol
activation of NFκB and production of NO, TNF-α and COX-2 (in words) [2]: inhibit
